Assays:
[1] = in vivo
[2] = Lipid profile and glucose; conditions: for glucose: olanzapine study, healthy volunteers
[3] = Body weight change during olanzapine treatment
[4] = Effect of Compound 3 on steady-state pharmacokinetics of olanzapine; type: in vivo, human; conditions: 200 mg Compound 3 BID with 10 mg olanzapine; days 8 and 15
Protocol: Postprandial triglycerides and lipid profiles were assessed on study days 1, 8, and 15, olanzapine pharmacokinetics was assessed on study days 8 and 15, and safety and tolerability were assessed throughout. On each of these study days, subjects consumed a standardized breakfast (˜900 kcal; 55% of kcal from fat) in 15 minutes. Blood samples were drawn prior to meal consumption and 1, 2, 3, 4, 6 and 8 hours after initiation of meal.

[5] = Postprandial triglycerides after a standardized breakfast in subjects treated with olanzapine; conditions: normal healthy volunteers; 10 mg olanzapine alone, or 10 mg olanzapine + 200 mg Compound 3 BID (days 8-15)

Row | SMILES | SAEs, fatal events, discontinuations due to adverse events [1] | glucose [2] | weight gain during the first week of treatment ([3]; normal healthy volunteers, 10 mg olanzapine alone, first week) | impact on the pharmacokinetic profile of olanzapine [4] | LDL-C ([2]; Day 9-15, olanzapine alone vs olanzapine + Compound 3) | blunting of body weight gain from olanzapine ([3]; second week of the study, 10 mg olanzapine + 200 mg Compound 3 BID) | postprandial triglycerides [5]
1 | Cc1cc2c(s1)Nc1ccccc1N=C2N1CCN(C)CC1 [olanzapine, reference compound] | No SAEs, fatal events, or discontinuations due to adverse events | No changes in glucose were observed | significant weight gain | – | – | – | –
2 | COc1cccc(C(=O)Nc2ccc3c(c2)CCN(C(=O)Oc2ccccc2)C3)c1-c1ccc(C(F)(F)F)cc1 [Compound 3] | – | No changes in glucose were observed | – | did not significantly impact | blunted | significant blunting in body weight gain | greatly reduced postprandial triglycerides
